According to patent US12448368B2, “Indole compounds as androgen receptor modulators” (NIDO BIOSCIENCES, INC., priority 2020, dated 2025):

Target: T1, androgen receptor (AR) (Homo sapiens, UniProt P10275, T878A)
T1 construct: LNCaP cells expressing ARR2PB-FireflyLuc and CMV-RenillaLuc; endogenous in cells; host or cells: LNCaP cells carrying ARR2PB-FireflyLuc and CMV-RenillaLuc reporters
T1 sequence (P10275 1-920 T878A): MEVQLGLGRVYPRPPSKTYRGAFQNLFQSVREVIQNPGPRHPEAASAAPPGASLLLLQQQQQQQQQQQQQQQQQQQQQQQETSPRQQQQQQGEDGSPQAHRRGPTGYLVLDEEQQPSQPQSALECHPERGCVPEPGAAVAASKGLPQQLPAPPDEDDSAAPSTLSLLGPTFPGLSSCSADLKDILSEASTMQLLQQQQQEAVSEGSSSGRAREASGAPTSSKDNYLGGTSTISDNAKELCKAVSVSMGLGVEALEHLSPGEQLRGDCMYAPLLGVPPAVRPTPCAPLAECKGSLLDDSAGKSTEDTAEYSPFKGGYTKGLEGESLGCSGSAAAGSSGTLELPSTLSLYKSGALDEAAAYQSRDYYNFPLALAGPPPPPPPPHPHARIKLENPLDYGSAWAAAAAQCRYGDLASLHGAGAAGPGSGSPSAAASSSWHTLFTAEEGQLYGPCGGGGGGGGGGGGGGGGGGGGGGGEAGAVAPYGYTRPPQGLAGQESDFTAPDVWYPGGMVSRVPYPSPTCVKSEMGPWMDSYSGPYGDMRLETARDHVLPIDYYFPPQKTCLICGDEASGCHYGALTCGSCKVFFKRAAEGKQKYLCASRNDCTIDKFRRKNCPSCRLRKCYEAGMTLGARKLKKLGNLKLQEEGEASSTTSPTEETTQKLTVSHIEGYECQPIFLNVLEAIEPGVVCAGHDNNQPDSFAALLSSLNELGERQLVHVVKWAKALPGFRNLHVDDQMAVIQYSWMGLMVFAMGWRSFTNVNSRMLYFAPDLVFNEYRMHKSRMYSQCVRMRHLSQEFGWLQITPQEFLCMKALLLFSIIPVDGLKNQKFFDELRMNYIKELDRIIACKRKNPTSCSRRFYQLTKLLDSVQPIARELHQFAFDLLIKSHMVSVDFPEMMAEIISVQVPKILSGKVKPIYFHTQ
Assay: AR reporter assay in LNCaP cells expressing ARR2PB-FireflyLuc and CMV-RenillaLuc, antagonist mode (% remaining activity, IC50)
Format: cell-based
Conditions: 48 h at 37° C., class symbols A-D, read-out: IC50
Protocol: LNCaP cells expressing ARR2PB-FireflyLuc and CMV-RenillaLuc were treated with indicated concentrations of test compounds, enzalutamide (negative control), or DHT (positive control)+/−0.5 nM DHT for 48 h at 37° C. […] Remaining activity (antagonist mode) was calculated as % Remaining Activity=100×[(Readsample−LCave)/(HCave−LCave)] where HC is cells treated with 0.5 nM DHT only and LC is cells treated with 10 uM enzalutamide+0.5 nM DHT. Activation (agonist mode) was calculated as % Activation=100×[(ReadSample−LCave)/(HCave−LCave)] where HC is cells treated with 1 uM DHT and LC is cells treated with DMSO. Dose response curves and IC50 values were calculated using non-linear regression analysis in XLfit.
The designation “A” indicates an IC50 value of >10 μM, “B” indicates an IC50 value between 1 μM and 10 μM; “C” indicates an IC50 value between 100 nM and 1 μM; and “D” indicates an IC50 value of less than 100 nM.

| IC50 [nM] | SMILES |
| --- | --- |
| 100 to 1000 | CC1CCNc2ccc(-c3n[nH]c4cc(F)c(F)cc34)nc21 (single isomer, unassigned) [Compound 47] |
| < 100 | CC1CCNc2ccc(-c3n[nH]c4cc(F)c(F)cc34)nc21 (single isomer, unassigned) [Compound 48] |
| 1000 to 10000 | c1ccc2nc(-c3n[nH]c4ccc(N5CCOCC5)cc34)ccc2c1 [Compound 1] |
| > 10000 | c1ccc2nc(-c3n[nH]c4cc(N5CCOCC5)ccc34)ccc2c1 [Compound 2] |
| > 10000 | CN(C)c1ccc2[nH]nc(-c3ccc4ccccc4n3)c2c1 [Compound 3] |
| > 10000 | CN(C)c1ccc2c(-c3ccc4ccccc4n3)n[nH]c2c1 [Compound 4] |
| < 100 | c1cnc2ccc(-c3n[nH]c4ccccc34)nc2c1 [Compound 5] |
| 1000 to 10000 | O=c1ccc2nc(-c3n[nH]c4ccccc34)ccc2[nH]1 [Compound 6] |
| 100 to 1000 | c1ccc2c(-c3ccc4cnccc4n3)n[nH]c2c1 [Compound 7] |
| < 100 | c1ccc2c(-c3ccc4ccncc4n3)n[nH]c2c1 [Compound 8] |
| 100 to 1000 | c1ccc2c(-c3ccc4c(n3)CCCN4)n[nH]c2c1 [Compound 9] |
| > 10000 | CN1CCOc2nc(-c3n[nH]c4ccccc34)ccc21 [Compound 10] |
| 100 to 1000 | Fc1cc2[nH]nc(-c3ccc4c(n3)CCCN4)c2cc1F [Compound 11] |
| < 100 | COc1nccc2nc(-c3n[nH]c4ccccc34)ccc12 [Compound 12] |
| 1000 to 10000 | CN1CCOc2nc(-c3n[nH]c4cc(F)c(F)cc34)ccc21 [Compound 13] |
| > 10000 | Fc1cc2[nH]nc(-c3cc4ccccc4nn3)c2cc1F [Compound 14] |
| > 10000 | COc1ccc2nc(-c3n[nH]c4ccccc34)ccc2n1 [Compound 16] |
| 1000 to 10000 | Cn1c(=O)ccc2nc(-c3n[nH]c4ccccc34)ccc21 [Compound 17] |
| 1000 to 10000 | Cn1ccc2nc(-c3n[nH]c4ccccc34)ccc2c1=O [Compound 18] |

| IC50 [nM] | SMILES |
| --- | --- |
| < 100 | Cc1nccc2nc(-c3n[nH]c4ccccc34)ccc12 [Compound 19] |
| > 10000 | c1ccc2c(-c3ccc4c(n3)CNCC4)n[nH]c2c1 [Compound 20] |
| > 10000 | CC(=O)N1CCc2ccc(-c3n[nH]c4ccccc34)nc2C1 [Compound 21] |
| > 10000 | NC1CCCc2nc(-c3n[nH]c4ccccc34)ccc21 (centres unmarked) [Compound 22] |
| > 10000 | CC(=O)NC1CCCc2nc(-c3n[nH]c4ccccc34)ccc21 (centres unmarked) [Compound 23] |
| 1000 to 10000 | CN1CCCc2nc(-c3n[nH]c4cc(F)c(F)cc34)ccc21 [Compound 24] |
| 100 to 1000 | CC(=O)N1CCCc2nc(-c3n[nH]c4cc(F)c(F)cc34)ccc21 [Compound 25] |
| < 100 | Fc1cc2[nH]nc(-c3ccc4ncccc4n3)c2cc1F [Compound 26] |
| 1000 to 10000 | Fc1cc2[nH]nc(-c3ccnc4cccnc34)c2cc1F [Compound 27] |
| 100 to 1000 | O=c1[nH]ccc2nc(-c3n[nH]c4cc(F)c(F)cc34)ccc12 [Compound 28] |
| > 10000 | Cn1ccc2nc(-c3n[nH]c4cc(F)c(F)cc34)ccc2c1=O [Compound 29] |
| > 10000 | CC(=O)N1CCc2nc(-c3n[nH]c4cc(F)c(F)cc34)ccc2C1 [Compound 31] |
| > 10000 | Fc1cc2[nH]nc(-c3ccc4c(n3)CNCC4)c2cc1F [Compound 32] |
| 100 to 1000 | Fc1cc2[nH]nc(-c3ccc4c(-c5nnco5)c(F)ccc4n3)c2cc1F [Compound 33] |
| > 10000 | Fc1cc2[nH]nc(-c3ccc4cc(F)c(-c5nnco5)cc4n3)c2cc1F [Compound 34] |
| < 100 | Fc1cc2[nH]nc(-c3ccc4c(-c5nnco5)cccc4n3)c2cc1F [Compound 35] |
| 1000 to 10000 | O=C(CO)N1CCCc2nc(-c3n[nH]c4cc(F)c(F)cc34)ccc21 [Compound 36] |
| > 10000 | COCC(=O)N1CCCc2nc(-c3n[nH]c4cc(F)c(F)cc34)ccc21 [Compound 37] |

| SMILES | IC50 [nM] |
| --- | --- |
| Fc1cc2[nH]nc(-c3ccc4c(n3)CCNC4)c2cc1F [Compound 30] | > 10000 |
